Test results taken from publication PMC10579241, “Impact of trifluoromethyl and sulfonyl groups on the biological activity of novel aryl-urea derivatives: synthesis, in-vitro, in-silico and SAR studies” (Scientific Reports, 2023).
Values after ≈ are worked out from the molar mass of the structure shown. Marks after values point to notes of the source that are not given here.

What was measured:
BRCA2 = test: qRT-PCR, BRCA2 in PC3 cells; format: cell-based, human; details: versus negative samples
PACA2 [1] = test: DNA damage, comet assay, PACA2; format: cell-based, human
HCT116 [2] = test: DNA damage, comet assay, HCT116; format: cell-based, human
PALB2 = test: qRT-PCR, PALB2 in PACA2 cells; format: cell-based, human; details: versus negative untreated sample
PC3 [3] = test: DNA fragmentation assay, PC3; format: cell-based, human
PACA2 [4] = test: DNA fragmentation assay, PACA2; format: cell-based, human
colon cancer (HCT116) = test: cells; format: cell-based; details: Homo sapiens
skin cancer (A431) = test: cells; format: cell-based; details: Homo sapiens, A-431, 100 μg/mL, 48 h
CDKN2A = test: qRT-PCR, CDKN2A in PACA2 cells; format: cell-based, human; details: versus negative untreated sample
Bacillus mycoides = test: microbe, parasite or virus in culture; format: cell-based
HCT116 [5] = test: DNA fragmentation assay, HCT116; format: cell-based, human
BRCA1 = test: qRT-PCR, BRCA1 in PC3 cells; format: cell-based, human; details: versus negative samples
Escherichia coli = test: MIC by serial dilution (agar wells), E. coli; format: cell-based
[6] = test system: pancreatic cancer cell line (PACA2); test: cells; format: cell-based; details: Homo sapiens, PaCa-2, 48 h
PC3 [7] = test: DNA damage, comet assay, PC3; format: cell-based, human
prostate cancer (PC3) = test: cells; format: cell-based; details: Homo sapiens, 48 h
[8] = test system: osteosarcoma cell line (HOS); test: cells; format: cell-based; details: 48 h; for IC50: MTT
[9] = test system: human lung carcinoma (A549); test: cells; format: cell-based
Candida albicans [10] = test: MIC by serial dilution (agar wells), C. albicans; format: cell-based
[11] = test system: normal skin fibroblast cell line (BJ1); test: cells; format: cell-based; details: Homo sapiens, Skin fibroblast, MTT, 48 h
in vitro = format: cell-based; details: human, BJ1 normal skin fibroblast cells, 100 μg/mL
[12] = test system: hepatocellular carcinoma cell line (HePG2); test: cells; format: cell-based; details: Homo sapiens, 48 h
Candida albicans [13] = test: Agar well diffusion, C. albicans; format: cell-based
FASN = test: qRT-PCR, FASN in HCT116 cells; format: cell-based, human; details: versus negative samples
[14] = 0.00488 mg/mL, 150 µL in DMSO, 15 mm agar well
[15] = 0.00975 mg/mL, 150 µL in DMSO, 15 mm agar well
[16] = 0.0195 mg/mL, 150 µL in DMSO, 15 mm agar well
[17] = 0.0391 mg/mL, 150 µL in DMSO, 15 mm agar well
[18] = 0.0781 mg/mL, 150 µL in DMSO, 15 mm agar well
[19] = 0.1563 mg/mL, 150 µL in DMSO, 15 mm agar well
[20] = 0.3125 mg/mL, 150 µL in DMSO, 15 mm agar well
[21] = 0.625 mg/mL, 150 µL in DMSO, 15 mm agar well
[22] = 1.25 mg/mL, 150 µL in DMSO, 15 mm agar well
[23] = 2.50 mg/mL, 150 µL in DMSO, 15 mm agar well
[24] = 5.00 mg/mL, 150 µL in DMSO, 15 mm agar well
[25] = 10.0 mg/mL, 150 µL in DMSO, 15 mm agar well
[26] = read-out: Minimum inhibition concentration (MIC)

## Cc1ccc(S(=O)(=O)NC(=O)Nc2ccc(C(F)(F)F)cc2)cc1 [Compound 7, 4-Methyl-N-[(4-{trifluoromethyl}phenyl)carbamoyl]benzenesulfonamide]
BRCA2
  BRCA2 gene expression level: decreased significantly
PACA2 [1]
  DNA damaged cells % (mean ± SEM): 23.52 ± 0.65^a %
PACA2 [1]; of 400 cells analyzed
  Class 0 (no tail), number of cells: 306
  Class 1 (tail length < diameter of nucleus), number of cells: 35
  Class 2 (tail length between 1 and 2 × the diameter of nucleus), number of cells: 28
  Class 3 (tail length > 2 × the diameter of nucleus), number of cells: 31
  No. of cells, Comets: 94
HCT116 [2]
  DNA damaged cells % (mean ± SEM): 25.56 ± 0.66^a %
HCT116 [2]; of 400 cells analyzed
  Class 0 (no tail), number of cells: 298
  Class 1 (tail length < diameter of nucleus), number of cells: 29
  Class 2 (tail length between 1 and 2 × the diameter of nucleus), number of cells: 38
  Class 3 (tail length > 2 × the diameter of nucleus), number of cells: 35
  No. of cells, Comets: 102
PALB2
  PALB2 gene expression level: significantly reduced
PC3 [3]
  Change (DNA fragmentation versus untreated cells): 24.5
PC3 [3]; IC50 concentration, 24 h
  DNA fragmentation % M ± SEM: 36.1 ± 0.60^a %
PC3 [3]; doxorubicin = 0.0
  Inhibition: 21.89
PACA2 [4]
  Change (DNA fragmentation versus untreated cells): 23.10
PACA2 [4]; IC50 concentration, 24 h
  DNA fragmentation % M ± SEM: 35.2 ± 0.68^a %
PACA2 [4]; doxorubicin = 0.0
  Inhibition: 28.33
Colon cancer (HCT116); HCT-116, 48 h, 100 μg/mL
  mortality at 100 µg/mL: 100%
Colon cancer (HCT116); HCT-116, MTT, 48 h
  IC50: 93.5 ± 1.4 µM
Skin cancer (A431)
  mortality at 100 µg/mL: 55.4 ± 1.25%
CDKN2A
  CDKN2A gene expression level: significantly reduced
Bacillus mycoides; B. mycoides, 200 μL of 10 mg/mL in DMSO in 15 mm holes, overnight 37 °C
  Inhibition zones diameter: 36 ± 1.25 mm
Bacillus mycoides; Bacillus mycoides, read-out: Inhibition zones diameter
  zone of inhibition at 10000 µg/mL: 36 mm
HCT116 [5]
  Change (DNA fragmentation versus untreated cells): 26.20
HCT116 [5]; IC50 concentration, 24 h
  DNA fragmentation % M ± SEM: 37.1 ± 0.52^a %
HCT116 [5]; doxorubicin = 0.00
  Inhibition: 24.76
BRCA1
  BRCA1 gene expression level: decreased significantly
Escherichia coli; [14]
  zone of inhibition at 4.88 µg/mL: 15 mm
Escherichia coli; [15]
  zone of inhibition at 9.75 µg/mL: 16 mm
Escherichia coli; [16]
  zone of inhibition at 19.5 µg/mL: 17 mm
Escherichia coli; [17]
  zone of inhibition at 39.1 µg/mL: 18 mm
Escherichia coli; [18]
  zone of inhibition at 78.1 µg/mL: 19 mm
Escherichia coli; [19]
  zone of inhibition at 156.3 µg/mL: 20 mm
Escherichia coli; [20]
  zone of inhibition at 312.5 µg/mL: 22 mm
Escherichia coli; [21]
  zone of inhibition at 625 µg/mL: 23 mm
Escherichia coli; [22]
  zone of inhibition at 1250 µg/mL: 25 mm
Escherichia coli; [23]
  zone of inhibition at 2500 µg/mL: 26 mm
Escherichia coli; [24]
  zone of inhibition at 5000 µg/mL: 27 mm
Escherichia coli; [25]
  zone of inhibition at 10000 µg/mL: 28 mm
Escherichia coli; [26]
  MIC: 4.88 µg/mL (≈ 13.6 µM)
[6]; 100 μg/mL
  mortality at 100 µg/mL: 100%
[6]; MTT
  IC50: 44.4 ± 0.57 µM
PC3 [7]
  DNA damaged cells % (mean ± SEM): 25.78 ± 1.44^a %
PC3 [7]; of 400 cells analyzed
  Class 0 (no tail), number of cells: 297
  Class 1 (tail length < diameter of nucleus), number of cells: 38
  Class 2 (tail length between 1 and 2 × the diameter of nucleus), number of cells: 36
  Class 3 (tail length > 2 × the diameter of nucleus), number of cells: 29
  No. of cells, Comets: 103
Prostate cancer (PC3); 100 μg/mL
  mortality at 100 µg/mL: 100%
Prostate cancer (PC3); MTT
  IC50: 91.3 ± 0.28 µM
[8]; Homo sapiens, 100 μg/mL
  mortality at 100 µg/mL: 100%
[8]; Homo sapiens
  IC50: 102 µM
[8]
  IC50: 102.1 ± 0.95 µM
[9]; A549, 48 h, 100 μg/mL
  mortality at 100 µg/mL: 100%
[9]; MTT, 48 h
  IC50: 86.5 ± 1.4 µM
Candida albicans [10]; [14]
  zone of inhibition at 4.88 µg/mL: 16 mm
Candida albicans [10]; [15]
  zone of inhibition at 9.75 µg/mL: 17 mm
Candida albicans [10]; [16]
  zone of inhibition at 19.5 µg/mL: 17 mm
Candida albicans [10]; [17]
  zone of inhibition at 39.1 µg/mL: 17 mm
Candida albicans [10]; [18]
  zone of inhibition at 78.1 µg/mL: 17 mm
Candida albicans [10]; [19]
  zone of inhibition at 156.3 µg/mL: 18 mm
Candida albicans [10]; [20]
  zone of inhibition at 312.5 µg/mL: 19 mm
Candida albicans [10]; [21]
  zone of inhibition at 625 µg/mL: 22 mm
Candida albicans [10]; [22]
  zone of inhibition at 1250 µg/mL: 25 mm
Candida albicans [10]; [23]
  zone of inhibition at 2500 µg/mL: 27 mm
Candida albicans [10]; [24]
  zone of inhibition at 5000 µg/mL: 28 mm
Candida albicans [10]; [25]
  zone of inhibition at 10000 µg/mL: 29 mm
Candida albicans [10]; [26]
  MIC: 4.88 µg/mL (≈ 13.6 µM)
[11]
  IC50: 48.8 ± 0.26 µM
In vitro
  mortality at 48 h, 100 µg/mL: 12.3 ± 1.12%
[12]; 100 μg/mL
  mortality at 100 µg/mL: 100%
[12]; MTT
  IC50: 97.4 ± 1.11 µM
Candida albicans [13]; C. albicans, 200 μL of 10 mg/mL in DMSO in 15 mm holes, overnight 37 °C
  Inhibition zones diameter: 37 ± 1.20 mm
Candida albicans [13]; Candida albicans, read-out: Inhibition zones diameter
  zone of inhibition at 10000 µg/mL: 37 mm
FASN
  FASN gene expression level: suppression
